Data from patent US20210009673A1, “METHODS FOR REGULATING BREAST CANCERS” (priority 2018, published 2021).
No end group written: not given here.

Experiments:
ALK = ALK activation in MDA-MB-231 cells stably transfected with dominant negative PTN (anti-ALK phosphotyrosine 1586/1604 Western blot); assay type: cell-based, human; settings: cells expressing dominant negative PTN vs empty vector
Experimental: FIG. 18: FIG. 18 illustrates: that a dominant negative PTN blocks ALK activation. MDA-MB-231 cells were transfected with an empty vector or cDNA encoding a dominant negative PTN 1-40. Cell lysates were prepared and analyzed in Western blots probed with anti-phospho-ALK tyrosine 1586/1604 (left two lanes) or separately with anti-ALK antibodies (right two lanes). Arrows point full length ALK (200 kDa) and activated ALK phosphotyrosines 1586/1604.
To test whether ALK is activated through the PTN/RPTPβ/ζ signaling pathway in MDA-MB-231 cells, lysates from MDA-MB-231 cells, stably transfected with dominant negative PTN, were first analyzed in Western blots probed with anti-ALK and with anti-ALK phosphotyrosine 1586/1604 antibodies specific for activated ALK (Bai, Dieter et al. 1998, Mol Cell Biol 18(12): 6951-61). Anti-ALK phosphotyrosines 1586/1604 immunoreactive proteins were only identified in lysates from MDA-MB-231 empty vector cells, consistent with results above and supporting ALK is activated in cells with an activated PTN/RPTPβ/ζ signaling pathway.
The vector pcDNA3.1/PTN1-40 was constructed by inserting the cDNA fragment encoding residues −32 to 40 of human PTN protein into XbaI and BamHI of pcDNA3.1/myc-his/hygro vector (Invitrogen).

[1] = test system: MMTV-PyMT mouse breast cancers; experiment: breast cancer progression in MMTV-PyMT-PTN 1-40 bi-transgenic mice; assay type: in vivo
From the text: The MMTV LTP promoter and human cDNA encoding PTN 1-40 (residue −32 to residue 40) was amplified using PCR from pcDNA3.1-Ptn (constructed by our laboratory). After restriction enzyme digestion, MMTV LTR and Ptn 1-40 cDNA were inserted into EcoR V, Not I and EcoR I site of pIRES-EGFP (BD clontech). The sequence of the final transgene construction (MMTV-PTN-IRES-EGFP) was verified by nucleotide sequencing. The transgene construction was freed of the bacterial sequences by digestion with EcoR V and Xho I, producing a 4.0-kb linear DNA fragment. The 4.0-kb linear DNA that was injected into the fertilized eggs of FVB mice consisted of the MMTV-LTR, PTN 1-40 cDNA, IRES (internal ribosomal entry site), EGFP cDNA, SV40 poly-adenylation sequences. Tail DNA from weaning mice derived from the transgene-injected eggs was analyzed by PCR. The mice were housed in animal facility of The Scripps Research Institute and were maintained according to NIH guidelines for the Care and Use of Laboratory Animals.
FVB/N-Tg(MMTV-PyVT)634Mul/J transgenic mice were purchased from Jackson laboratory. They develop spontaneous metastatic mammary carcinomas and have been described in before. […] Transgenic animals were genotyped using PCR analysis of genomic DNA obtained from tails. When possible, litter mates with both genotypes were used in the same experiment.
Mice were examined daily seeking mammary tumors by eye examination and finger palpation after 5 weeks of age. The tumors fully formed on the mammary glands were excised and weighed in 12-14 weeks old mice depending on the tumor size in bi-transgenic mice. Tumor length (L) and width (W) were measured 3 times a week using calipers. Tumor volume was estimated using the formula (L×W2)/2. Total wet tumor weight was weighed by scale when the tumors were excised from sacrificed mice.
The tumor tissue excised from euthanized animals was fixed in 10% buffered formalin and embedded in paraffin. The specimens were sectioned, stained with H&E, and Masson trichrome stain for collagen fibers.
Tumor tissue was fixed by 4% paraformaldehyde in phosphate-buffered saline (PBS). After PBS rinse, the tissues were cryoprotected with 30% sucrose in PBS at […] overnight, then infiltrated with a mixture of 1 parts 30% sucrose phosphate buffer to 1 part Histo Prep™ Frozen tissue embedding media (Fisher Scientific) for ½ hour at room temperature before infiltration with 100% Histo Prep™ and freezing. Cryosections ([…]) were cut and immunohistochemistry was performed using rat anti-mouse CD31 (PECAM-1. BD Pharmingen) antibodies. IMD (number of vessels/mm2) was obtained by counting CD31+ vessels in 10 random fields at ×200 magnification.
Reverse transcription was done using […] total RNA in the presence of 50 ng random hexamers using Ominscipt kit (Qiagen) following manufacturer's recommendations. Real time PCR was done using ICycler (BIORAD). The amplification conditions were: one cycle of 95° C.°, 3 min followed by 40 cycles of 95 C°, 30 sec and 60 C°, 15 sec. GAPDH was used as internal control. The fold changes relative to GAPDH was calculated using the formula: Fold Change=2 L (Ct Target1-CtTarget2)/2 L (Ct GAPDH1-CtGAPDH2) Where: Ct is the threshold of cycle number. Target is the gene measured. Number 1 and 2 represent different samples.

[2] = test system: MDA-MB-231 cell xenograft; settings: ectopic expression; Zhang, Zhong et al. 1997; cited from earlier work

**Q.** Which “anti-ALK phosphotyrosines 1586/1604 immunoreactive proteins” value (ALK) does the source give for “dominant negative PTN: mutant PTN (residues 1-40) forming mixed disulfide linked heterodimers with wild-type PTN; expressed from cDNA or transgene (GKKEKPEKKVKKSDCGEWQWSVCVPTSGDCGLGTREGTRT; also: forms mixed disulfide linked heterodimers with wild-type PTN; UniProt P21246 33-72, looked up, fragment)” here?
**A.** essentially non-identifiable

**Q.** What about the “percentage area of adenoma/MIN” value ([1]; 13-week mice, 2% in MMTV-PyMT, p=0.017) of the same substance?
**A.** 12%

**Q.** What about the “percentage area occupied by early carcinoma” value ([1]; 13-week mice, 20% in MMTV-PyMT, p=0.045) of the same substance?
**A.** 41%

**Q.** And the “percentage area occupied by later carcinoma” value ([1]; 13-week mice, 78% in MMTV-PyMT, P=0.024)?
**A.** about 45%

**Q.** And the “foci of scirrhous carcinoma” value ([1]; MMTV-PyMT-PTN 1-40 bi-transgenic mouse breast cancers)?
**A.** not seen

**Q.** And the “average intratumor microvessel density (IMD)” value ([1]; about 30 in MMTV-PyMT, P<0.05)?
**A.** about 18 blood vessels/mm2

**Q.** And the “tropoelastin and protocollagen mRNA levels (RT-PCR)” value ([1]; compared with MMTV-PyMT mice)?
**A.** not statistically different

**Q.** What about the “activated fibroblasts in breast cancers” value ([1]; compared with MMTV-PyMT-Ptn and MMTV-PyMT mice) of the same substance?
**A.** marked reduction

**Q.** And the “MDA-MB-231 cell xenograft growth in nude mice” value [2]?
**A.** prevented MDA-MB-231 cell xenograft growth
